# Measured values reported in PubChem BioAssay AID1259407 (Chemical Carcinogenesis Research Information System (CCRIS), 2018).
# The source made the active and inactive calls. How the calls were made is not given here.
# Tested on: CCRIS mutagenicity, Ames/micronucleus/aberration tests
# Experiment: CCRIS mutagenicity studies
# Conditions: Test System: AMES SALMONELLA TYPHIMURIUM, Method: STANDARD PLATE
smiles,measurement,setting,value
O=[N+]([O-])C1=Cc2cc3cc4ccccc4cc3c3cccc1c23,mutagenic call,"Strain/Indicator: TA98, Metabolic Activation: NONE",active; positive
same,mutagenic call,"Strain/Indicator: TA98, Metabolic Activation: RAT, LIVER, S-9, AROCLOR 1254",active; positive
same,mutagenic call,"Strain/Indicator: TA100, Metabolic Activation: NONE",inactive; negative
same,mutagenic call,"Strain/Indicator: TA100, Metabolic Activation: RAT, LIVER, S-9, AROCLOR 1254",inactive; negative
same,mutagenic call,"Strain/Indicator: TA1535, Metabolic Activation: NONE",inactive; negative
same,mutagenic call,"Strain/Indicator: TA1535, Metabolic Activation: RAT, LIVER, S-9, AROCLOR 1254",inactive; negative
same,mutagenic call,"Strain/Indicator: TA1537, Metabolic Activation: NONE",active; positive
same,mutagenic call,"Strain/Indicator: TA1537, Metabolic Activation: RAT, LIVER, S-9, AROCLOR 1254",active; positive
same,mutagenic call,"Strain/Indicator: TA1538, Metabolic Activation: NONE",active; positive
same,mutagenic call,"Strain/Indicator: TA1538, Metabolic Activation: RAT, LIVER, S-9, AROCLOR 1254",inactive; negative
